# Laboratory results published in patent publication US6689759B1, “Methods of Treating hepatitis virus infections with N-substituted-1,5-dideoxy-1,5-imino-d-glucitol compounds in combination therapy” (G. D. Searle & Co., priority 2000, dated 2004).
# Legend:
# [1] = tested on: woodchuck hepatitis virus (WHV); assay: Woodchuck model, N-nonyl-DNJ monotherapy, BID oral dosing, total HBV DNA and IPDNA; format: in vivo
# Experimental: Therefore, five groups of four animals each (all groups had both sexes, all but the control had two of each sex) were assigned to 0, 12.5, 25, 50, and 100 mg/kg/day with BID oral dosing. These were lab-reared wild animals. All animals were infected with woodchuck hepatitis virus (WHV) as neonates, and had been tested positive on serological tests for WHV surface antigen. Blood samples were drawn one week prior to dosing (−1 week), immediately before dosing (0 weeks), weekly during dosing (1, 2, 3, and 4 weeks), and after the end of dosing (5, 6, 8, and 10 weeks).
# (§1) There are two measures of drug efficacy: reduction in total HBV DNA (measured by quantitative PCR), and reduction in HBV DNA from capsids with intact surface glycoproteins, which is the active form of the virus (measured by an ELISA-like immune precipitation assay followed by quantitative PCR).
# Before models are fitted to the data, a log transform was applied because: 1) the variation in IPDNA increases with increasing IPDNA values; the log transformation gives values with a nearly constant variation, and 2) it is expected that drug effects will appear as a constant multiplier of the IPDNA level. Because there are zero values of IPDNA, a small value (about ½ of the smallest non-zero value) was added to all values before the log transform.
# Two approaches were used to model the changes in slope to week with dose of N-nonyl-DNJ: a linear modeling approach and a nonlinear model. Both approaches assume that the (linear) rate of change of the Log(IPDNA) measure over the dosing period is the “right” measure to reflect the effect of the drug on the virus. Both approaches are fit in stages, and the first stage is common to both approaches. First, a simple straight line regression model is fit using weeks 0-4 to predict log(IPDNA+10) separately for each animal by run combination. In the second stage, the response variable is the slope fitted in the first stage.
# For the linear approach, a model is fit with slope to week as the response where run is considered a block, dose has a significant effect (almost all of this effect is due to a slope to dose), and the relevant error for testing the effect of dose is the variation among animals treated alike (after the adjustment for the runs as blocks). This is similar to using the calibration data within each run to first adjust each run's data to a common virus DNA concentration; the difference is that here the data from the woodchucks are used for the run adjustment rather than only the calibration data.
# For the nonlinear approach, a four parameter logistic model is fit with the slope to week as the response and the dose as the predictor. Again, run is considered a block, but because no run has all weeks, it is not possible to fully reflect the blocking in the nonlinear approach. […] The average maximum slope observed was 2.71 additional Log(IPDNA μg/mL)/week, or an increase of about 150%/week, the average minimum slope observed with N-nonyl-DNJ is 0.31 fewer Log(IPDNA μg/mL)/week), or about a decrease of about 25%/week. The slopes, the fitted model, the parameter estimates from the-model, and the approximate standard errors for these parameters are all shown in FIG. 3. […] Whether in woodchucks or humans, the effective dose of both the N-alkyl-DNJ and nucleoside or nucleotide antiviral agent administered in combination therewith can be administered in two equal daily subdoses (i.e., B.I.D.).
# HBV DNA = assay: Cell culture experiments with N-nonyl-DNJ: total HBV DNA and immune precipitated DNA (IPDNA); format: cell-based
# Text: as §1
# [2] = HIV infected patients; cited from earlier work
# Hepatitis B virus = conditions: literature; cited from earlier work
# [3] = in vivo; cited from earlier work
compound,measurement,setting,value
"CCCCCCCCCN1C[C@H](O)[C@@H](O)[C@H](O)[C@H]1CO [N-nonyl-DNJ, N-(n-nonyl-)-1,5-dideoxy-1,5-imino-D-glucitol]",average maximum slope observed,"[1]; additional Log(IPDNA)/week, i.e. an increase, low dose end of the model",2.71 Log(IPDNA μg/mL)/week
same,average minimum slope observed,"[1]; fewer Log(IPDNA)/week, i.e. a decrease",0.31 Log(IPDNA μg/mL)/week
same,EC50,"[1]; four parameter logistic model, slope of Log(IPDNA+10) to week versus dose",7.88 mg/kg/BID dose
same,decrease of IPDNA at the average minimum slope,[1]; in vivo,about 25 %/week
same,increase of IPDNA at the average maximum slope,[1]; low dose end of the model,about 150 %/week
same,effect on total HBV DNA measurements,"[1]; woodchuck, all dose levels, quantitative PCR",no effect
same,slope of IPDNA over weeks 0-4,"[1]; woodchuck, change in slope statistically significant (p<0.005)",generally increasing for low dose animals and decreasing for high dose animals
same,approximate effective monotherapy dose,[1]; woodchucks,about 16 mg/kg/day
same,effect on immune precipitated DNA (IPDNA),HBV DNA,marked effect
same,effect on total HBV DNA,HBV DNA,little or no effect
"CCCCN1C[C@H](O)[C@@H](O)[C@H](O)[C@H]1CO [n-butyl-DNJ, N-butyl-1-5-dideoxy-1,5-imino-D-glucitol]",tolerability,[2],well tolerated
same,usefulness against Hepatitis B infection,Hepatitis B virus,effective
O=c1[nH]c(=O)n([C@@H]2O[C@H](CO)[C@@H](O)[C@@H]2F)cc1I [fialuridine],toxicity,[3],drug-related liver failure leading to death in some patients
"Cc1cn([C@H]2C[C@H](N=[N+]=[N-])[C@@H](CO)O2)c(=O)[nH]c1=O [zidovudine, 3′-azido-3′-deoxythymidine, reference compound]",usefulness against Hepatitis B infection,Hepatitis B virus,appears to have little use against the same virus
